What follows are compounds tested on HMPV clinical isolate A2 strain TN 94-49 (assay: HMPV antiviral assay, Method 1 (LLC-MK2 cells, ATP-Lite)). Conditions: human metapneumovirus, hMPV A2 TN/94-49, LLC-MK2 cells.
Assay type: cell-based
Summary of the method: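 LLC-MK2 cells (5,000/well) infected in suspension with HMPV A2 TN 94-49 at MOI 0.005 in serum-free OptiMEM with 2 μg/mL final TPCK-trypsin, compounds in duplicate from 2 μM top, 2.5-fold, 10 points. After 7 days at 37° C, cell health by ATP-Lite luminescence normalised to virus and cell controls; EC50 from four-parameter fit.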

Row | SMILES | EC50
1 | CCc1cc(-c2nc([C@@](O)(CNC(=O)c3cc(OC)c4nn(C5CC5)cc4c3)C3CC3)cc3c2OC[C@]3(C)C(N)=O)ccc1F [Example 71] | > 500 nM
2 | COc1cc(C(=O)NC[C@@](O)(c2ccccc2)c2cc3c(c(-c4cc(Cl)c(F)cc4F)n2)OC[C@]3(C)C(N)=O)cc2cc(Br)cnc12 [Example 185] | < 500 nM
3 | COc1cc(C(=O)NC[C@@](O)(c2ccccc2)c2cc3c(c(-c4ccc5c(c4)OC(F)(F)O5)n2)OC[C@]3(C)C(N)=O)cc2cn(C3(F)CC3)nc12 [Example 19] | < 500 nM
4 | Cc1cnc2c(OC(F)F)cc(C(=O)NC[C@@](O)(c3ccccc3)c3cc4c(c(-c5cc(Cl)c(F)cc5F)n3)OC[C@]4(C)C(N)=O)cc2c1 [Example 183] | < 500 nM
5 | [2H]C([2H])([2H])NC(=O)[C@@]1(C)COc2c1cc([C@@](O)(CNC(=O)c1cc(OC)c3nn(C4CC4)cc3c1)c1ccccc1)nc2-c1cc(Cl)c(F)cc1F [Example 140] | < 500 nM

The compounds below were run on HMPV clinical isolate A2 strain TN 94-49 (assay: HMPV antiviral assay, Method 2 (LLC-MK2 cells with CP-100-356, ATP-Lite)). Conditions: human metapneumovirus; hMPV A2 TN/94-49, LLC-MK2 cells with CP-100-356, Method 2.
Assay type: cell-based
Summary of the method: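 LLC-MK2 rhesus kidney cells (5,000/well) infected in suspension with HMPV A2 TN 94-49 at MOI 0.16, in serum-free medium with final 2 μg/mL TPCK-trypsin and 2 μM CP-100-356. Compounds tested in duplicate from 200 nM, 2.5-fold, 10 points; 7 days at 37 °C. Cell health by ATP-Lite luminescence; EC50 by four-parameter fit.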

Row | SMILES | EC50
6 | CCc1cc(-c2nc([C@@](O)(CNC(=O)c3cc(OC)c4nn(C5CC5)cc4c3)C3CC3)cc3c2OC[C@]3(C)C(N)=O)ccc1F [Example 71] | > 200 nM
7 | COc1cc(C(=O)NC[C@@](O)(c2ccccc2)c2cc3c(c(-c4cc(Cl)c(F)cc4F)n2)OC[C@]3(C)C(N)=O)cc2cc(Br)cnc12 [Example 185] | < 200 nM
8 | COc1cc(C(=O)NC[C@@](O)(c2ccccc2)c2cc3c(c(-c4ccc5c(c4)OC(F)(F)O5)n2)OC[C@]3(C)C(N)=O)cc2cn(C3(F)CC3)nc12 [Example 19] | < 200 nM
9 | Cc1cnc2c(OC(F)F)cc(C(=O)NC[C@@](O)(c3ccccc3)c3cc4c(c(-c5cc(Cl)c(F)cc5F)n3)OC[C@]4(C)C(N)=O)cc2c1 [Example 183] | < 200 nM
10 | [2H]C([2H])([2H])NC(=O)[C@@]1(C)COc2c1cc([C@@](O)(CNC(=O)c1cc(OC)c3nn(C4CC4)cc3c1)c1ccccc1)nc2-c1cc(Cl)c(F)cc1F [Example 140] | < 200 nM

These compounds were tested on genotype A, “Long” strain RSV (assay: RSV-A assay (CPE, ATPlite readout in Hep-2 cells)). Conditions: activity class.
Assay type: cell-based, Human respiratory syncytial virus
Text: Hep-2 cells, (originally derived from tumors grown in irradiated-cortisonised weanling rats that had been injected with epidermoid carcinoma tissue from the larynx of a person, but later found to be indistinguishable from HeLa cells by PCR DNA analysis), were used for the culturing of genotype A, “Long” strain RSV. Flasks were inoculated with RSV and viral stocks were collected once cytopathic effect (CPE) was greater than 90%. Viral stocks in 25% sucrose media were snap frozen using liquid nitrogen to increase viral stability. Viral stock titers were quantified by tissue culture infectious dose 50% (TCID50) using 8,000 cells per well and 3-fold viral dilutions across a 96-well plate, cultured for 4 days. Viral stock titers were also quantified by a plaque forming unit assay, as described elsewhere.
Following extensive parameter testing, the final assay is run as follows: Hep-2 cells are seeded into the inner 60 wells of a 96-well plate at 8,000 cells per well in a volume of 50 μL using Growth Media (DMEM without phenol red, 1% L-Glut, 1% Penn/Strep, 1% nonessential amino acids, 10% heat-inactivated FBS). 2-fold serial dilutions of control and test compounds are added to the wells in duplicate in a total volume of 25 μL. Viral stock is then added to the wells at a multiplicity of infection (MOI) of 0.1 in a volume of 25 μL, bringing the total volume of each well to 100 μL. The MOI is calculated using the PFU/mL, or TCID50 if unavailable. Each 96-well plate has a control column of 6 wells with cells and virus but no compound (negative control, max CPE), a column with cells but no compound or virus (positive control, minimum CPE), and a column with no cells or virus or compound (background plate/reagent control). The control wells with cells but no virus are given an additional 25 μL of growth media containing an equal quantity of sucrose as those wells receiving the viral stock in order to keep consistent in media and volume conditions. The outer wells of the plate are filled with 125 μL of moat media (DMEM, 1% Penn/Strep) to act as a thermal and evaporative moat around the test wells. Following a 5-day incubation period, the plates are read using ATPlite (50 uL added per well), which quantifies the amount of ATP (a measure of cell health) present in each well. Assay plates are read using the Envision luminometer. […] EC50 ranges are as follows: A<0.2 μM; B>0.2 μM.

Row | SMILES | EC50
11 | COc1cc(C(=O)NC[C@](O)(c2cc3c(c(-c4ccnc(Cl)c4Cl)n2)OC[C@]3(C)C(N)=O)C2CC2)cc2cn(C(F)F)nc12 [Example 732] | < 200 nM

Same assay, conditions: human respiratory syncytial virus, activity class

Row | SMILES | EC50
12 | COc1cc(C(=O)NC[C@](O)(c2cc3c(c(-c4ccnc(C)c4Cl)n2)OC[C@]3(C)C(N)=O)C2CC2)cc2cc(C3CC3)nn12 [Example 673] | < 200 nM
13 | Cc1nccc(-c2nc([C@@](O)(CNC(=O)c3cc(Cl)c4nn(C5CC5)cc4c3)C3CC3)cc3c2OC[C@]3(C)C(N)=O)c1Cl [Example 674] | < 200 nM
14 | COc1cc(C(=O)NC[C@](O)(c2cc3c(c(-c4ccnc(Cl)c4Cl)n2)OC[C@]3(C)C(N)=O)C2CC2)cc2cn(C(F)F)nc12 [Example 422] | < 200 nM
15 | COc1cc(C(=O)NC[C@](O)(c2cc3c(c(-c4cc(C(F)(F)F)ncc4F)n2)OC[C@]3(C)C(N)=O)C(F)(F)F)cc2cn(C(F)F)nc12 [Example 424] | < 200 nM
16 | COc1cc(C(=O)NC[C@](O)(c2cc3c(c(-n4ccc5c(F)cccc54)n2)OC[C@]3(C)C(N)=O)C2CC2)cc2cn(C3CC3)nc12 [Example 452] | < 200 nM
17 | COc1cc(C(=O)NC[C@](O)(c2cc3c(c(-c4cccc(F)c4Cl)n2)OC[C@]3(C)C(N)=O)C2CC2)cc2oc(C3CC3)nc12 [Example 616] | < 200 nM
18 | COc1cc(C(=O)NC[C@](O)(c2cc3c(c(-c4cc(C(F)F)ncc4Cl)n2)OC[C@]3(C)C(N)=O)C2CC2)cc2cn(C3CC3)nc12 [Example 437] | < 200 nM
19 | COc1cc(C(=O)NC[C@](O)(c2cc3c(c(-n4ccc5ccc(F)cc54)n2)OC[C@]3(C)C(N)=O)C2CC2)cc2cn(C3CC3)nc12 [Example 454] | < 200 nM
20 | COc1cc(C(=O)NC[C@](O)(c2cc3c(c(-n4ccc5ccccc54)n2)OC[C@]3(C)C(N)=O)C2CC2)cc2cn(C(F)F)nc12 [Example 445] | < 200 nM
21 | COc1cc(C(=O)NC[C@](O)(c2cc3c(c(-c4cc(C(F)(F)F)ncc4F)n2)OC[C@]3(C)C(N)=O)C2(F)CC2)cc2cc(C3CC3)nn12 [Example 462] | < 200 nM
22 | COc1cc(C(=O)NC[C@@](O)(c2cc(F)nc(F)c2)c2cc3c(c(-c4cccc(Cl)c4Cl)n2)OC[C@]3(C)C(N)=O)cc2cn(C3CC3)nc12 [Example 575] | < 200 nM
23 | COc1cc(C(=O)NC[C@](O)(c2cc3c(c(-c4cc[nH]c(=O)c4Cl)n2)OC[C@]3(C)C(N)=O)C2CC2)cc2cn(C3CC3)nc12 [Example 436] | > 200 nM
24 | COc1cc(C(=O)NC[C@](O)(c2cc3c(c(-c4cc(C(F)(F)F)ncc4F)n2)OC[C@]3(C)C(N)=O)C2(F)CC2)cc2cn(C(F)F)nc12 [Example 460] | < 200 nM
25 | COc1cc(C(=O)NC[C@](O)(c2cc3c(c(-c4ccnc5c4ccn5C)n2)OC[C@]3(C)C(N)=O)C2CC2)cc2cn(C3CC3)nc12 [Example 420] | < 200 nM
26 | COc1cc(C(=O)NC[C@](O)(c2cc3c(c(-n4nnc5ccccc54)n2)OC[C@]3(C)C(N)=O)C2CC2)cc2cn(C3CC3)nc12 [Example 450] | < 200 nM
27 | COc1cc(C(=O)NC[C@](O)(c2cc3c(c(-c4cc(C(F)(F)F)ncc4F)n2)OC[C@]3(C)C(N)=O)C2(F)CC2)cc2cn(C3CC3)nc12 [Example 458] | < 200 nM
28 | COc1cc(C(=O)NC[C@](O)(c2cc3c(c(-c4ccnc(OC(F)F)c4Cl)n2)OC[C@]3(C)C(N)=O)C2CC2)cc2cn(C3CC3)nc12 [Example 438] | < 200 nM
29 | COc1cc(C(=O)NC[C@](O)(c2cc3c(c(-c4cccc(F)c4Cl)n2)OC[C@]3(C)C(N)=O)C2CC2)cc2cn(C(F)F)nc12 [Example 614] | < 200 nM
30 | COc1cc(C(=O)NC[C@](O)(c2cc3c(c(-c4ccnc(Cl)c4Cl)n2)OC[C@]3(C)C(N)=O)C2CC2)cc2cn(C3(F)CC3)nc12 [Example 441] | < 200 nM
31 | COc1cc(C(=O)NC[C@](O)(c2cc3c(c(-c4ccnc(C)c4Cl)n2)OC[C@]3(C)C(N)=O)C2CC2)cc2cn(C3CC3)nc12 [Example 426] | < 200 nM
32 | COc1cc(C(=O)NC[C@](O)(c2cc3c(c(-c4ccn(C)c(=O)c4Cl)n2)OC[C@]3(C)C(N)=O)C2CC2)cc2cn(C3CC3)nc12 [Example 423] | > 200 nM

Further lines, results first:

Row | EC50 | SMILES
33 | < 200 nM | COc1cc(C(=O)NC[C@](O)(c2cc3c(c(-n4ccc5ccccc54)n2)OC[C@]3(C)C(N)=O)C2CC2)cc2cn(C3(F)CC3)nc12 [Example 741]
34 | < 200 nM | COc1cc(C(=O)NC[C@](O)(c2cc3c(c(-n4ncc5c(F)cccc54)n2)OC[C@]3(C)C(N)=O)C(F)(F)F)cc2cn(C3CC3)nc12 [Example 830]
35 | < 200 nM | COc1cc(C(=O)NC[C@](O)(c2cc3c(c(-c4cncc(Cl)c4Cl)n2)OC[C@]3(C)C(N)=O)C2CC2)cc2oc(C3CC3)nc12 [Example 774]
36 | < 200 nM | COc1cc(C(=O)NC[C@](O)(c2cc3c(c(-c4ccnc(C)c4Cl)n2)OC[C@]3(C)C(N)=O)C2CC2)cc2cn(C(F)F)nc12 [Example 753]
37 | < 200 nM | COc1cc(C(=O)NC[C@](O)(c2cc3c(c(-n4ccc5ccccc54)n2)OC[C@]3(C)C(N)=O)C2(F)CC2)cc2cn(C3CC3)nc12 [Example 716]
38 | < 200 nM | COc1cc(C(=O)NC[C@](O)(c2cc3c(c(-c4cncc(Cl)c4Cl)n2)OC[C@]3(C)C(N)=O)C2CC2)cc2cn(C3CC3)nc12 [Example 740]
39 | < 200 nM | COc1cc(C(=O)NC[C@](O)(c2cc3c(c(-c4ccnc(C)c4Cl)n2)OC[C@]3(C)C(N)=O)C2CC2)cc2oc(C3CC3)nc12 [Example 755]
40 | < 200 nM | COc1cc(C(=O)NC[C@](O)(c2cc3c(c(-c4cncc(Cl)c4Cl)n2)OC[C@]3(C)C(N)=O)C2CC2)cc2cn(C3(F)CC3)nc12 [Example 773]
41 | < 200 nM | COc1cc(C(=O)NC[C@](O)(c2cc3c(c(-n4ccc5ccccc54)n2)OC[C@]3(C)C(N)=O)C2CC2)cc2oc(C3CC3)nc12 [Example 748]
42 | < 200 nM | COc1cc(C(=O)NC[C@](O)(c2cc3c(c(-n4ccc5c6c(ccc54)OC(F)(F)O6)n2)OC[C@]3(C)C(N)=O)C2CC2)cc2cn(C3CC3)nc12 [Example 855]
43 | < 200 nM | COc1cc(C(=O)NC[C@](O)(c2cc3c(c(-n4ccc5cccc(F)c54)n2)OC[C@]3(C)C(N)=O)C(F)(F)F)cc2cn(C3CC3)nc12 [Example 854]
44 | < 200 nM | COc1cc(C(=O)NC[C@](O)(c2cc3c(c(-c4ccnc(C)c4Cl)n2)OC[C@]3(C)C(N)=O)C2CC2)cc2cc(Cl)c(C)nc12 [Example 675]
45 | < 200 nM | COc1cc(C(=O)NC[C@](O)(c2cc3c(c(-n4ccc5c(F)cccc54)n2)OC[C@]3(C)C(N)=O)C(F)(F)F)cc2cc(C3CC3)nn12 [Example 686]
46 | < 200 nM | COc1cc(C(=O)NC[C@@](O)(c2cc3c(c(-c4ccnc(Cl)c4Cl)n2)OC[C@]3(C)C(N)=O)C2CC2)cc2cn(C(F)F)nc12 [Example 733]
47 | < 200 nM | COc1cc(C(=O)NC[C@](O)(c2cc3c(c(-n4ccc5ccc(F)cc54)n2)OC[C@]3(C)C(N)=O)C(F)(F)F)cc2cn(C3CC3)nc12 [Example 853]
